Assays:
[1] = system: Experimental Allergic Encephalomyelitis (EAE) of female SJL mice; assay: PLP 139-151 induced EAE in SJL/J mice, daily neurological score; type: in vivo, mouse
Description: The utility of the thiazobenzohetercyclic compounds of formula I for the treatment of various conditions associated with multiple sclerosis can be assessed by measuring their ability to inhibit effects of experimental allergic encephalomyelitis (EAE) in laboratory animals.
Experimental Autoimmune Encephalomyelitis (EAE) is a T-cell-mediated autoimmune disease of the nervous system that develops in susceptible animals following sensitization with either whole spinal cord homogenate or a myelin component. It is known that EAE reflects or mimics many of the pathophysiological steps in MS, including the role of certain adhesion molecules, the influence of T cells and antibodies reactive to components of the myelin sheath, the participation of metalloproteases in penetrating the blood-brain barrier, and the cytotoxic role of certain cytokines. One of the marketed MS therapies, glatiramer acetate (Copaxone®) was developed preclinically based on its success in treating various models of EAE.
EAE was induced in female SJL/J mice (8 wks old, from Jackson Laboratories) by immunization with the myelin Proteolipid Protein (PLP 139-151) from BACHEM, Bioscience. PLP139-151 was dissolved in H2O:PBS (1:1) solution to a concentration of 7.5 mg/10 ml (for 75 ug PLP per mouse) and emulsified with an equal volume of CFA supplemented with 40 mg/10 ml heated-killed mycobacterium tuberculosis H37Ra (BD Bioscience). Mice were injected s.c. with 0.2 ml of peptide emulsion in the abdominal flank (0.1 ml on each side). On the same day and 72 hr later, mice were injected i.v. with 35 ng and 50 ng of Bordetella Pertussis toxin (List Biological Laboratories ) in saline, respectively.
Compound A, one representative of thiazolobenzoheterocyclic compounds, was examined in the PLP/SJL mouse EAE model.
Study 1: There were five groups, i.e., vehicle (water), Compound A at doses of 5, 10 and 20 mg/kg and dexamethasone (DEX) at a dose of 3 mg/kg. Treatment was begun on day 7 after PLP immunization. Mice were dosed twice per day for 22 days. Results are as follows:
Study 2: There were five groups, i.e., vehicle (water), Compound A at doses of 10, 20 and 30/40 mg/kg and dexamethasone (DEX) at a dose of 3 mg/kg. Treatment was begun on day 7 after PLP immunization. Mice were dosed twice per day for 18 days.

[2] = system: Experimental Allergic Encephalomyelitis (EAE) of female DA (Dark Agouti) rats; assay: Rat spinal cord homogenate induced EAE in DA rats, daily neurological score; type: in vivo; details: doses of 1, 3 and 10 mg/kg p.o., twice daily for 28 days from one day post-immunization
Procedure: EAE was induced in female DA (Dark Agouti) rats (8 wks old, from Harlan) by immunization with the 25% w/v rat spinal cord homogenate (r-SCH) in saline emulsified with an equal volume of CFA supplemented with 40 mg/10 ml heated-killed mycobacterium tuberculosis H37Ra (BD Bioscience). Rats were injected s.c. with 0.2 ml of emulsion in the base of tail.
Rats were scored daily before treatment starting from day 5 post-immunization through the entire experiment by a well-known behavioral scale system: Score 0, normal; 0.5, partial limp tail; 1, complete limp tail; 2, abnormal gait; 3, partial hind limb paralysis, and mice unable to walk normally; 3.5, one leg is completely paralyzed, and one leg is partially paralyzed; 4, complete hind limb paralysis; 4.5, Legs are completely paralyzed and Moribund; 5, death due to EAE. Compound A and Compound B (active metabolite of Compound A), two representatives of thiazolobenzoheterocyclic compounds, were examined in DA rat EAE procedure.
Compound A and Compound B were given one-day post-immunization, p.o. route, twice daily for 28 days.

[3] = Study 2, SJL EAE mice, twice per day for 18 days from day 7

Row | SMILES | neurological deficits in the EAE mice (FIG. 1) ([1]; Study 1, doses of 10 and 20 mg/kg p.o., twice per day for 22 days from day 7 after PLP immunization, vs vehicle) | EAE incidence [1, 3] | disease onset [1, 3] | neurological scores in SJL EAE mice ([1]; Study 2, doses of 10 and 20 mg/kg, twice per day for 18 days from day 7 after PLP immunization) | EAE incidence [2] | cumulative neurological scores [2] | maximal neurological scores [2]
1 | N=c1sc2cc(C(F)(F)F)cc3c2n1CC[S+]([O-])C3 (racemic) [Compound A, (R,S)-2-imino-9-trifluoromethyl-4,5-dihydro-2H,7H-thiazolo[3,4,5-de][4,1]benzothiazepine-6-oxide] | significantly reduced | reduced | delayed | significant reduced | significantly reduced | significantly reduced | significantly reduced
2 | N=c1sc2cc(C(F)(F)F)cc3c2n1CCS(=O)(=O)C3 [Compound B, (R,S)-2-imino-9-trifluoromethyl-4,5-dihydro-2H,7H-thiazolo[3,4,5-de][4,1]benzothiazepine-6,6-dioxide] |  |  |  |  | significantly reduced | significantly reduced | significantly reduced

From US7041661B2, “Use of thiazolobenzoheterocycles for treating multiple sclerosis” (Aventis Pharmaceuticals Inc., priority 2002, dated 2006)
